This note sets out measurements from patent publication US20090123979A1, “Methods of reducing the inhibitory effect of a tannin on the enzymatic hydrolysis of cellulosic material” (Novozymes, Inc., priority 2007, published 2009).

Assay [1] concerns T1, Cellulolytic Enzyme Composition #1.
T1 construct: other: PASC hydrolysis; mean ± SD; 0.01 g enzyme; Dixon plot linear regression intercept (1/Rate); other: AVICEL; rate from hydrolysis difference (%) at 0 and 6 hours; rate from hydrolysis difference; fused on or other part: The A. oryzae beta-glucosidase is the mature chain secreted behind the Humicola insolens endoglucanase V signal peptide, which is cleaved off
Nature of the assay: PCS hydrolysis by Cellulolytic Enzyme Composition #1 with added compounds. To be noted: for effect on hydrolysis of PCS by Cellulolytic Enzyme Composition #1: 1 mM each compound, 43.4 g PCS and 0.25 g enzyme per liter, pH 5.0, 50° C.; for loss in initial rate of PCS hydrolysis / loss in the extent of PCS hydrolysis at day 4: 50 g PCS, 0.25 g enzyme per liter, methyl gallate and ellagic acid 10 mM, tannic acid 1 mM. Type of assay: biochemical, Trichoderma reesei. The procedure:
(§1) Corn stover was pretreated at the U.S. Department of Energy National Renewable Energy Laboratory (NREL), […], Colo., USA, using dilute sulfuric acid. The following conditions were used for the pretreatment: 1.4 wt % sulfuric acid at 195° C. for 4.5 minutes. According to limit digestion with excess cellulase enzymes, the water-insoluble solids in the pretreated corn stover (PCS) contained 59.5% cellulose. Prior to use, the PCS was washed with a large volume of deionized water until soluble acid and sugars were removed. The dry weight of the water-washed PCS was 19.16%.
(§2) The effect of a mixture of tannic acid, ellagic acid, epicatechin, and six lignin constituent compounds (4-hydroxyl-2-methylbenzoic acid, vanillin, coniferyl alcohol, coniferyl aldehyde, ferulic acid, and syringaldehyde) was determined on the hydrolysis of PCS by Cellulolytic Enzyme Composition #1 or Cellulolytic Enzyme Composition #2. […] Cellulolytic Enzyme Composition #1 or Cellulolytic Enzyme Composition #2 was added at 0.25 g per liter. Reactions without the addition of the compounds served as controls. The capped tubes were incubated at 50° C. in an INNOVA® 4080 incubator shaker (New Brunswick Scientific Co., Inc., Edison, N.J., USA) at 150 rpm.
(§3) Aliquots of the suspensions, sampled over time, were filtered by centrifugation using a 0.45 μm MULTISCREEN® HV membrane (Millipore, Billerica, Mass., USA) at 2000 rpm for 15 minutes using a SORVALL® RT7 centrifuge (Thermo Fisher Scientific, Waltham, Mass., USA). When not used immediately, the filtered aliquots were frozen at −20° C. Sugar concentrations of the samples diluted in 0.005 M H2SO4 were measured after elution by 0.005 M H2SO4 at a flow rate of 0.4 ml/minute from a 4.6×250 mm AMINEX® HPX-87H column (Bio-Rad, Hercules, Calif., USA) at 65° C. with quantitation by integration of glucose and cellobiose using refractive index detection (CHEMSTATION®, AGILENT® 1100 HPLC, Agilent Technologies, Santa Clara, Calif., USA) calibrated with standards of glucose and cellobiose. The resultant equivalents were used to calculate the percentage of cellulose conversion for each reaction.
(§4) The degree of cellulose conversion to glucose plus cellobiose sugars (conversion, %) was calculated using the following equation:
(§5) Conversion(%)=(glucose+cellobiose×1.053)(mg/ml)×100×162/cellulose(mg/ml)×180)=(glucose+cellobiose×1.053)(mg/ml)×100/(cellulose(mg/ml)×1.111)
(§6) In this equation the factor 1.111 reflects the weight gain in converting cellulose to glucose, and the factor 1.053 reflects the weight gain in converting cellobiose to glucose. Cellulose in PCS was determined by a limit digest of PCS to release glucose and cellobiose.
(§7) Example 30 was repeated except that each compound was tested separately. […] Reactions without the addition of each compound served as controls.
(§8) The effect of OPC or flavonol on the hydrolysis of PCS by Cellulolytic Enzyme Composition #1 or Cellulolytic Enzyme Composition #2 was determined according to the procedure described in Example 30. OPC and flavonol were present at a concentration of 1 mM. Reactions without the addition of the compounds served as controls.
Methyl gallate and ellagic acid were compared at 10 mM to 1 mM tannic acid in the hydrolysis of PCS by Cellulolytic Enzyme Composition #1.

Assay [2] relates to T2, Cellulolytic Enzyme Composition #2.
T2 construct: Dixon plot linear regression intercept (1/Rate); other: PCS; rate from hydrolysis difference (%) at 0 and 5 hours; rate from hydrolysis difference (%); Ki (x-intercept of Dixon plot); other: PCS hydrolysis, Cellulolytic Enzyme Composition #2; OPC flavonol-equivalent; Ki expressed as galloyl constituents; oth; fused on or other part: In one component the Humicola insolens endoglucanase V (CEL45A) core is fused in front of the A. oryzae beta-glucosidase
Nature of the assay: PCS hydrolysis by Cellulolytic Enzyme Composition #2 with added compounds. Format: biochemical, Trichoderma reesei. To be noted: 1 mM each compound; 43.4 g PCS and 0.25 g enzyme per liter, pH 5.0, 50° C. On the procedure:
as §1, §2, §3, §4, §5, §6, §7, §8
(§9) The effective inhibitory concentration range for tannic acid and OPC was also determined by the “mini-scale” hydrolysis described in Example 30 with Cellulolytic Enzyme Composition #2. The concentration of tannic acid ranged from 0.1 mM to 1 mM, while the concentration of OPC ranged from 0.1 mM to 10 mM. Reactions without the addition of the tannic compounds served as controls.
(§10) However, prior to the addition of Cellulolytic Enzyme Composition #2, the mixture of PCS or OPC and tannic acid was treated with Aspergillus oryzae tannase (Novozymes A/S, Bagsværd, Denmark) at 10% of the final protein level for 30 minutes. Reactions without addition of the tannic acid, OPC, or tannase served as controls.

For assay [3], the system named is Cellulolytic Enzyme Composition #2. The assay is described as above. Type of assay: biochemical, Trichoderma reesei. To be noted: tannase alone, in the absence of tannic acid or OPC. On the procedure: as §1, §2, §3, §4, §5, §6, §7, §8, §9, §10
Assay [4] is described as follows: Tannase reduction of tannic acid inhibition of PCS hydrolysis by Cellulolytic Enzyme Composition #2. The settings on record: 1 mM tannic acid; 43 g PCS per liter; tannase at 10% of final protein level for 30 minutes. Type of assay: biochemical. On the procedure: (§11) Tannase was evaluated for its ability to reduce the inhibitory effect of tannic acid on OPC on PCS hydrolysis by Cellulolytic Enzyme Composition #2.
as §10

A short description of assay [5]: Tannase reduction of OPC inhibition of PCS hydrolysis by Cellulolytic Enzyme Composition #2. Format: biochemical. The settings on record: 10 mM OPC; 43 g PCS per liter; tannase at 10% of final protein level for 30 minutes. The procedure: as §11, §10
Assay [6] can be described thus: Tannase reduction of tannic acid inhibition of PCS hydrolysis by Cellulolytic Enzyme Composition #1. Type of assay: biochemical. The settings on record: 1 mM tannic acid. The procedure:
To reduce the inhibition, tannase was added at 12.5, 25, and 50 mg per liter (or 0.21, 0.42, and 0.85 μM).

Regarding `O=c1oc2c(O)c(O)cc3c(=O)oc4c(O)c(O)cc1c4c23` [ellagic acid], in assay [1], the “effect on hydrolysis of PCS by Cellulolytic Enzyme Composition #1” value was “but not its constituent ellagic acid (FIG. 17C), significantly inhibited”; the “loss in initial rate of PCS hydrolysis” value was around 30%; the “loss in the extent of PCS hydrolysis at day 4” value is reported as around 40%.
With `O=c1c(O)c(-c2ccccc2)oc2ccccc12` [flavonol], the “effect on hydrolysis of PCS by Cellulolytic Enzyme Composition #1” value in assay [1] is “not its constituent flavonol, was inhibitory”. For the same molecule, the “effect on hydrolysis of PCS by Cellulolytic Enzyme Composition #2” value in assay [2] is “not inhibitory”.
`COC(=O)c1cc(O)c(O)c(O)c1` [methyl gallate]: in assay [1], the “loss in initial rate of PCS hydrolysis” value is reported as around 10% and the “loss in the extent of PCS hydrolysis at day 4” value is listed as around 10%.

B1: Aspergillus oryzae tannase: Aspergillus oryzae tannase (Novozymes A/S, Bagsværd, Denmark) (protein, listed as Aspergillus oryzae)
chain: MPSLRRLLPFLAAGSAALASQDTFQGKCTGFADKINLPNVRVNFVNYVPGGTNLSLPDNPTSCGTTSQVVSEDVCRIAMAVATSNSSEITLEAWLPQNYTGRFLSTGNGGLSGCIQYYDLAYTSGLGFATVGANSGHNGTSGEPFYHHPEVLEDFVHRSVHTGVVVGKQLTKLFYEEGFKKSYYLGCSTGGRQGFKSVQKYPNDFDGVVAGAPAFNMINLMSWSAHFYSITGPVGSDTYLSPDLWNITHKEILRQCDGIDGAEDGIIEDPSLCSPVLEAIICKPGQNTTECLTGKQAHTVREIFSPLYGVNGTLLYPRMQPGSEVMASSIMYNGQPFQYSADWYRYVVYENPNWDATKFSVRDAAVALKQNPFNLQTWDADISSFRKAGGKVLTYHGLMDQLISSENSKLYYARVAETMNVPPEELDEFYRFFQISGMAHCSGGDGAYGIGNQLVTYNDANPENNVLMAMVQWVEKGIAPETIRGAKFTNGTGSAVEYTRKHCRYPRRNVYKGPGNYTDENAWQCV
Turning to B1, the “increase in hydrolysis extent of PCS by Cellulolytic Enzyme Composition #2” value in assay [3] is listed as “approximately 2%”. Besides, the “effect of tannase pretreatment on the inhibitory effect of tannic acid on Cellulolytic Enzyme Composition #2” value in assay [4] was “significantly reduced”. The “effect of tannase pretreatment on the inhibitory effect of OPC on Cellulolytic Enzyme Composition #2” value in assay [5] is “significantly reduced”. Further, the “reduction of tannic acid inhibition” value is listed as “approximately 50%” in assay [6] (tannase at approximately 12 mg per liter) and around 100% in assay [6] (tannase at approximately 25 mg per liter).
